In PubChem BioAssay (NCI):
“And” between values parts separate entries of the source, which are not always exact repeats. Identical values can stand only once.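 Results reflect a 48-hour exposure of cells in 96-well plates to compound at five concentrations. The concentration for 50% growth inhibition is given as GI50. TGI: total growth inhibition.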

Key:
Assay in all cases: growth of human tumour cells (NCI), 48 h
ACHN renal = test system: ACHN renal
BT-549 breast = test system: BT-549 breast
HCT-116 colon = test system: HCT-116 colon
HOP-62 NSCLC = test system: HOP-62 NSCLC
MALME-3M melanoma = test system: MALME-3M melanoma
MDA-MB-231 breast = test system: MDA-MB-231 breast
NCI/ADR-RES ovarian = test system: NCI/ADR-RES ovarian
OVCAR-3 ovarian = test system: OVCAR-3 ovarian
SNB-19 CNS = test system: SNB-19 CNS
TK-10 renal = test system: TK-10 renal

Row | SMILES | GI50 (ACHN renal) | TGI (ACHN renal) | GI50 (BT-549 breast) | TGI (BT-549 breast) | GI50 (HCT-116 colon) | TGI (HCT-116 colon) | GI50 (HOP-62 NSCLC) | TGI (HOP-62 NSCLC) | GI50 (MALME-3M melanoma) | TGI (MALME-3M melanoma) | GI50 (MDA-MB-231 breast) | TGI (MDA-MB-231 breast) | GI50 (NCI/ADR-RES ovarian) | TGI (NCI/ADR-RES ovarian) | GI50 (OVCAR-3 ovarian) | TGI (OVCAR-3 ovarian) | GI50 (SNB-19 CNS) | TGI (SNB-19 CNS) | GI50 (TK-10 renal) | TGI (TK-10 renal)
1 | OC(COc1cccc2ccccc12)CN1CCN(c2ccc(Cl)cc2)CC1 (stereo not given) | 11.8 µM | > 100 µM | > 100 µM | > 100 µM | 23.4 µM | > 100 µM | 8.53 µM | 29.6 µM | 22.5 µM | 64.7 µM | 19.5 µM | 69 µM | 16.4 µM | 61.1 µM | 23.8 µM | 69.1 µM | 17 µM | 45.4 µM | 10.1 µM | 26.5 µM
2 | COc1cc(-c2nc3ccccc3[nH]2)ccc1OCC(=O)N=Nc1c(O)[nH]c2ccc(Cl)cc12 | 4.75 µM | > 100 µM | 1.98 µM | 4.03 µM | 0.4 µM | 1.53 µM | 1.79 µM | 3.44 µM | 1.53 µM | 2.93 µM | 0.547 µM | 1.86 µM | > 100 µM | > 100 µM | 0.96 µM | 2.2 µM | 1.63 µM | 3.04 µM | 2.58 µM | 5.77 µM
3 | Cc1ccc(Nc2[nH]c(C(=O)c3ccc(Cl)cc3)c(N)c2C(=S)Nc2ccccc2)nc1 | 31.9 µM | > 100 µM | 30.7 µM | > 100 µM | 42.8 µM | > 100 µM | 35.9 µM | > 100 µM | 13.7 µM | 42 µM | 21.4 µM | 64.7 µM | 15.9 µM | 87.7 µM | 29.4 µM | 74 µM | 39.4 µM | > 100 µM | 28.1 µM | > 100 µM
4 | CCC(C(=O)c1cccs1)C(O)(C(F)(F)F)C(F)(F)F (stereo not given) |  | > 100 µM |  | > 100 µM |  | > 100 µM |  | > 100 µM |  | > 100 µM |  | > 100 µM |  | > 100 µM |  | > 100 µM |  | > 100 µM |  | > 100 µM
5 | COc1ccc2[nH]c3c(C)c4cc[n+](C)cc4c(C)c3c2c1 | 4.04 µM | > 85.3 µM | 0.733 µM | 5.18 µM and 4.97 µM and 1.79 µM | 0.578 µM and 1.14 µM |  | 0.311 µM and 0.24 µM | 2.24 µM [middle of 4 runs] | 0.624 µM and 2.38 µM |  | 6.34 µM and 1.89 µM and 7.41 µM | 53 µM and 133 µM | 7.91 µM and 8.4 µM |  | 0.246 µM |  | 0.103 µM and 0.322 µM | 1.04 µM [middle of 4 runs] | 12.4 µM and 24.3 µM and 5.65 µM | 89.2 µM and > 163 µM
6 | O=C(CCc1ccco1)NC1CCN(CC2(c3ccc(Cl)cc3)CCC2)CC1 | 10.5 µM | 22.7 µM | 15.2 µM | 29.6 µM | 12.2 µM | 24.5 µM | 16.3 µM | 32.7 µM | 13.8 µM | 29.4 µM | 5.79 µM | 20.1 µM | 14.6 µM | 36 µM | 15.6 µM | 32.4 µM | 15.1 µM | 30.7 µM | 14.5 µM | 28.3 µM
7 | CCc1nc(-n2c(CC)nc3ccccc3c2=O)nc(N)c1-c1ccc(Cl)cc1 | > 27.1 µM | > 100 µM | > 100 µM | > 100 µM | > 26.2 µM | > 100 µM | 44.8 µM | > 100 µM | > 80.1 µM | > 100 µM | > 100 µM | > 100 µM | 7.17 µM | > 100 µM | 31.8 µM | > 100 µM | > 81.1 µM | > 100 µM | 35.6 µM | > 100 µM
8 | COc1ccccc1-c1ccc2nc(NC(=O)Nc3cc(C(F)(F)F)cc(C(F)(F)F)c3)sc2c1 | 2.14 µM | 7.71 µM | 1.62 µM | 3.72 µM | 1.07 µM | 2.45 µM | 2.1 µM | 4.99 µM | 1.81 µM | 4.29 µM | 1.95 µM | 4.24 µM | 2.37 µM | 7.19 µM | 1.58 µM | 4.58 µM | 2.44 µM | 12.2 µM | 4.03 µM | 13.2 µM
9 | CN1C(=O)N(C)C2C1NN=c1s/c(=C\c3c[nH]c4ccccc34)c(=O)n12 (stereo not given) | 0.0754 µM | > 100 µM | 0.0557 µM | > 100 µM | 0.0371 µM | > 100 µM | 0.046 µM | 52.6 µM | 0.0689 µM | > 100 µM | 0.0671 µM | > 100 µM | 0.034 µM |  | 0.0325 µM | > 100 µM | 0.0443 µM | > 100 µM | 34.7 µM | > 100 µM
10 | c1ccc(CCCNc2nnnc3ccccc23)cc1 |  | > 100 µM |  | > 100 µM |  | > 100 µM |  | > 100 µM |  | > 100 µM |  | > 100 µM |  | > 100 µM |  | > 100 µM |  | > 100 µM |  | > 100 µM
11 | CSC1=Nc2c(c(C)c(-c3ccccc3)n2CCCCl)C2=NC(=O)CN12 | 9.48 µM | 37.7 µM | 4.93 µM | 35.6 µM | 3.19 µM | 47.7 µM | 11 µM | 63.1 µM | 8.38 µM | 23.5 µM | 5.64 µM | 23.8 µM | 4.29 µM | > 100 µM | 8.28 µM | 36.2 µM | 3.97 µM | 17.8 µM | 8.45 µM | 78.3 µM
